One block for each compound: values may come before it.
What was measured:
[1] = system: Trypanosoma brucei brucei; assay: Antitrypanosomal activity against Trypanosoma brucei brucei Lister 427 at 18 hrs post dose by resazurin-based assay; assay type: functional; conditions: Lister 427, 18 h
[2] = Cytotoxicity against human HepG2 cells after 48 hrs by Cell Titer Glo assay; assay type: cell-based; conditions: read-out: pTC50 (converted)
[3] = system: Trypanosoma brucei brucei; assay: Antitrypanosomal activity against Trypanosoma brucei brucei Lister 427 at 70 hrs post dose by resazurin-based assay; assay type: functional
Trypanosoma cruzi [4] = assay: Antitrypanosomal activity against Trypanosoma cruzi Y amastigote forms infected in human U2OS cells after 96 hrs by Draq5 staining-based high content analysis; assay type: functional, cell-based
[5] = Cytotoxicity against human U2OS cells; assay type: cell-based
Trypanosoma cruzi [6] = assay: Antitrypanosomal activity against Trypanosoma cruzi Y amastigote forms infected in human U2OS cells after 96 hrs by Draq5 staining-based high content analysis relative to control; assay type: functional
[7] = Selectivity index, ratio of CC50 for human U2OS cells to EC50 for Trypanosoma cruzi Y amastigote forms infected in human U2OS cells; assay type: toxicity, cell-based; conditions: read-out: Ratio CC50/EC50

SMILES: CN(C)Cc1ccc(-c2cc3c(-c4cnn(C)c4)ccnc3[nH]2)cc1
- EC50 [1]: ≤ 1 µM
- CC50 at 48 h [2]: 14.5 to 100 µM
- pEC50 [3]: 6.16 to 9.17

SMILES: CS(=O)(=O)Nc1ccc(-c2c(-c3cccnc3)oc3ncnc(N)c23)cc1
- EC50 [1]: ≤ 1 µM
- CC50 at 48 h [2]: 14.5 to 100 µM
- pEC50 [3]: 6.16 to 9.17

SMILES: Cn1cc(-c2cnc3[nH]cc(-c4cccc(C#N)c4)c3c2)cn1
- CC50 at 48 h [2]: 14.5 to 100 µM

SMILES: CC(C)(O)c1cc2c(-c3ccc(C#N)cc3)nccc2[nH]1
- Emax (Trypanosoma cruzi [6]): 30.6%

SMILES: CC(C)(O)c1cc2c(-c3ccccc3CO)nccc2[nH]1
- Emax (Trypanosoma cruzi [6]): 30.1%

SMILES: CC(C)(O)c1cc2c(-c3ccc(NC(=O)OCc4ccccc4)cc3)nccc2[nH]1
- EC50 (Trypanosoma cruzi [4]): 4.5 µM
- CC50 [5]: 5.5 µM
- Emax (Trypanosoma cruzi [6]): 99.4%
- selectivity ratio [7]: 1.22

SMILES: CC(C)(O)c1cc2c(-c3ccsc3)nccc2[nH]1
- EC50 (Trypanosoma cruzi [4]): 106 µM
- CC50 [5]: 199 µM
- Emax (Trypanosoma cruzi [6]): 72.8%
- selectivity ratio [7]: 1.6

SMILES: CC(C)(O)c1cc2c(-c3ccc(-c4ccccc4)c(F)c3)nccc2[nH]1
- EC50 (Trypanosoma cruzi [4]): 3.8 µM
- CC50 [5]: 9.1 µM
- Emax (Trypanosoma cruzi [6]): 75.7%
- selectivity ratio [7]: 2.4

SMILES: CC(C)(O)c1cc2c(Cl)nccc2[nH]1
- EC50 (Trypanosoma cruzi [4]): 70.8 µM
- CC50 [5]: 15.5 µM
- Emax (Trypanosoma cruzi [6]): 106%
- selectivity ratio [7]: 0.2

SMILES: COc1ccccc1-c1nccc2[nH]c(C(C)(C)O)cc12
- EC50 (Trypanosoma cruzi [4]): 53.9 µM
- Emax (Trypanosoma cruzi [6]): 56.6%
- selectivity ratio [7]: > 3.7

SMILES: Cc1occc1-c1ncc(O[C@H](CN)c2ccccc2)cc1-c1c[nH]c2ncccc12
- EC50 [1]: ≤ 1 µM
- CC50 at 48 h [2]: 14.5 to 100 µM
- pEC50 [3]: 6.16 to 9.17

SMILES: CC(C)(O)c1cc2c(-c3cc(C(F)(F)F)cc(C(F)(F)F)c3)nccc2[nH]1
- EC50 (Trypanosoma cruzi [4]): 24.3 µM
- CC50 [5]: 59.8 µM
- Emax (Trypanosoma cruzi [6]): 72.2%
- selectivity ratio [7]: 2.5

SMILES: O=C(Nc1ccc(-c2ccnc3[nH]ccc23)s1)C1(Cc2ccccc2)CCCNC1 (stereo not drawn)
- EC50 [1]: ≤ 1 µM
- CC50 at 48 h [2]: 14.5 to 100 µM
- pEC50 [3]: 6.16 to 9.17

SMILES: CN(C)Cc1ccc(-c2[nH]c3ncc(C#N)cc3c2-c2ccccc2)cc1
- EC50 [1]: ≤ 1 µM
- CC50 at 48 h [2]: 14.5 to 100 µM
- pEC50 [3]: 6.16 to 9.17

SMILES: CC[C@@H]1COCCN1c1cc(-c2cc(OC)c3c(N)n[nH]c3c2)nc(N)n1
- EC50 [1]: ≤ 1 µM
- CC50 at 48 h [2]: 14.5 to 100 µM
- pEC50 [3]: 6.16 to 9.17

SMILES: OCCn1c(CNCCCNc2nc3ccccc3[nH]2)cc2c(Cl)cc(Cl)cc21
- EC50 [1]: ≤ 1 µM
- CC50 at 48 h [2]: 14.5 to 100 µM
- pEC50 [3]: 6.16 to 9.17

SMILES: O=C(Cn1ccnc1[N+](=O)[O-])NCc1ccccc1 [BENZNIDAZOLE]
- EC50 (Trypanosoma cruzi [4]): 3.6 µM
- Emax (Trypanosoma cruzi [6]): 102%
- selectivity ratio [7]: > 235

SMILES: CC(C)=Cc1cccc2c1/C(=N/Nc1ccc(S(N)(=O)=O)cc1)C(=O)N2 [GW396574X]
- EC50 [1]: ≤ 1 µM
- CC50 at 48 h [2]: 14.5 to 100 µM
- pEC50 [3]: 6.16 to 9.17

More lines, main results first:

- EC50 (Trypanosoma cruzi [4]): 17 µM
SMILES: CC(C)(C)c1ccc(-c2nccc3[nH]c(C(C)(C)O)cc23)cc1
- CC50 [5]: 35.3 µM
- Emax (Trypanosoma cruzi [6]): 110%
- selectivity ratio [7]: 1.3

- EC50 (Trypanosoma cruzi [4]): 6.5 µM
SMILES: CC(C)(O)c1cc2c(-c3ccccc3)nccc2[nH]1
- CC50 [5]: 22.2 µM
- Emax (Trypanosoma cruzi [6]): 106%
- selectivity ratio [7]: 3.4

- EC50 (Trypanosoma cruzi [4]): 20.1 µM
SMILES: CC(C)(O)c1cc2c(-c3ccc4ccccc4c3)nccc2[nH]1
- CC50 [5]: 22.5 µM
- Emax (Trypanosoma cruzi [6]): 102%
- selectivity ratio [7]: 1.1

- EC50 (Trypanosoma cruzi [4]): 45.8 µM
SMILES: CC(C)(O)c1cc2c(-c3ccc(F)cc3)nccc2[nH]1
- CC50 [5]: 93.6 µM
- Emax (Trypanosoma cruzi [6]): 75.8%
- selectivity ratio [7]: 2

- EC50 (Trypanosoma cruzi [4]): 137 µM
SMILES: CC(=O)c1ccc(-c2nccc3[nH]c(C(C)(C)O)cc23)cc1
- Emax (Trypanosoma cruzi [6]): 60.9%
- selectivity ratio [7]: > 1.4

- EC50 (Trypanosoma cruzi [4]): 52.3 µM
SMILES: Cc1cccc(-c2nccc3[nH]c(C(C)(C)O)cc23)c1
- CC50 [5]: 121 µM
- Emax (Trypanosoma cruzi [6]): 101%
- selectivity ratio [7]: 1.7

- EC50 (Trypanosoma cruzi [4]): 34.6 µM
SMILES: Cc1ccc(-c2nccc3[nH]c(C(C)(C)O)cc23)cc1
- CC50 [5]: 38.5 µM
- Emax (Trypanosoma cruzi [6]): 86%
- selectivity ratio [7]: 1.1

- EC50 (Trypanosoma cruzi [4]): 40.9 µM
SMILES: CC(C)(O)c1cc2c(-c3ccc(C(F)(F)F)cc3)nccc2[nH]1
- CC50 [5]: 72.3 µM
- Emax (Trypanosoma cruzi [6]): 102%
- selectivity ratio [7]: 1.5

- EC50 (Trypanosoma cruzi [4]): 9.6 µM
SMILES: CCSc1ccc(-c2nccc3[nH]c(C(C)(C)O)cc23)cc1
- CC50 [5]: 17.2 µM
- Emax (Trypanosoma cruzi [6]): 107%
- selectivity ratio [7]: 1.8
